From publication PMC8826726, “Selective Toxicity of Secondary Metabolites from the Entomopathogenic Bacterium Photorhabdus luminescens sonorensis against Selected Plant Parasitic Nematodes of the Tylenchina Suborder” (Microbiology Spectrum, 2022)
Converted amounts (≈) assume the structure as drawn. Where two headings read alike, the source gives them in different places.

Key:
H. sonorensis = assay: In vitro nematistatic assay (temporary paralysis), non-target species; format: cell-based; conditions: Heterorhabditis sonorensis; reversible paralysis, 24 h exposure
[1] = test system: Tylenchulus semipenetrans J2 juveniles; assay: In vitro nematistatic assay (temporary paralysis); format: cell-based; conditions: for EC50 / EC90 / EC10 / EC25: temporary paralysis
S. carpocapsae = assay: In vitro nematistatic assay (temporary paralysis), non-target species; format: cell-based; conditions: Steinernema carpocapsae; reversible paralysis, 24 h exposure
[2] = test system: HFF cells (human foreskin cells); assay: MTT cytotoxicity assay; format: cell-based; conditions: tested at 50, 100, 200 μM, data not shown
Protocol: (§1) The non-cancerous HFF cells (human foreskin cells) and three human cancer cell lines, NCI-H460 (non-small cell lung cancer), SF-268 (central nervous system glioma), and MCF-7 (breast cancer) were used to evaluate the in vitro cytotoxicity of the isolated Photorhabdus SMs. The MTT (3-(4,5-dimethylthiazol-2-yl)-2,5-diphenyltetrazolium bromide) colorimetric method ([54]) was used with doxorubicin as the positive control, and DMSO as the negative control. Photorhabdus SMs were tested at 50, 100, and 200 μM concentrations, and the assays were repeated three times.

R. blumi [3] = assay: in vitro; conditions: data not shown
Text: (§2) The non-target species, C. elegans wild-type strain N2 Bristol (courtesy of Dr. G.L. Sutphin, University of Arizona) and Rhabditis blumi DF5010 (Caenorhabditis Genetics Center, University of MN, USA) were maintained in vitro in nematode growth medium (NGM) agar plates seeded with Escherichia coli (Migula) Castellani and Chalmers, strain OP-50, as described previously ([52]). Mixed juveniles and hermaphrodites (5 to 6 days old) were collected from the culture plates prior to the bioassays. Infective third-stage juveniles (IJs) of three non-target entomopathogenic nematode species (H. sonorensis Caborca strain, H. bacteriophora TT01 strain, and Steinernema carpocapsae All strain) were also maintained by rearing them in vivo using wax moth larvae (Galleria mellonella) as the host, according to procedures described previously ([53]), and collected for bioassays within 2 to 4 days of their emergence from nematode-infected cadavers. Nematode population density (number of nematodes per ml) was standardized prior to setting up well-plate bioassays, by adjusting each nematode suspension to a concentration of 100 nematodes in 20 μL of distilled water.
(§3) Twelve-well tissue culture plates were used as the experimental arena. For each of the tested nematode species, an inoculum of 100 nematodes, suspended in 20 μL distilled water, was added to each well. […] For PPA (Enamine) and indole (Alfa Aesar), 13 incremental concentrations were tested ranging from 10 to 400 μg/mL in 1 mL of distilled water (DMSO ≤ 1%; vol/vol). […] Distilled water with 1% DMSO was used as the negative control. To measure the combined nematicidal effects of the three SMs, equal concentrations of two or three SMs were mixed in 1:1 or 1:1:1 mixture. For example, a 20 μg/mL solution of a two-SM mixture contained 20 μg from metabolite A and 20 μg metabolite B, dissolved in 1 mL distilled water. Individual or combined SMs from 10 μg/mL to 200 μg/mL (in 20 μg/ml increments) were prepared in distilled water (DMSO ≤ 1%; vol/vol) and used for the bioassays.
(§4) The well plates were covered with their lids and incubated at 25°C in the dark. For the targeted nematode species, nematicidal activity was recorded at 24 h, 48 h, and 72 h after initial exposure to the individual SMs. For the non-target species, data were only recorded at 24 h after initial exposure to the individual SMs. For SM mixtures, mortality was recorded 24 h after initial exposure of the targeted nematode species. Nematodes were probed with a needle to assess if they were alive, dead, or paralyzed. […] Those nematodes that resumed activity upon probing were considered to suffer from temporary paralysis (impaired motility). Paralyzed nematodes were rinsed at least three times in distilled water and held for an additional 24 h to check for their recovery from temporarily paralysis. […] Experiments were repeated at least three times per treatment for each concentration tested.
(§5) For the toxicity data visualization, the relationship between percent mortality or temporary paralysis and metabolite concentration were described by a sigmoidal curve, which was fitted by the logistical function using the statistical software package SigmaPlot for Windows, version 14.0 (Systat Software Inc.). […] Concentration-response data of single metabolites or SM mixtures were pooled for each concentration and subjected to probit regression analysis using the Polo Plus program (LeOra Software). The LC or EC values, along with the corresponding 95% confidence intervals, were estimated for each single SM or SM mixture at each exposure time, depending on the experimental setting.

C. elegans [4] = assay: in vitro; conditions: data not shown
Text: as §2, §3, §4, §5

H. bacteriophora = assay: In vitro nematistatic assay (temporary paralysis), non-target species; format: cell-based; conditions: Heterorhabditis bacteriophora; reversible paralysis, 24 h exposure
[5] = test system: NCI-H460 (non-small cell lung cancer); assay: MTT cytotoxicity assay; format: cell-based, human; conditions: tested at 50, 100, 200 μM, data not shown
Protocol: as §1

[6] = test system: SF-268 (central nervous system glioma); assay: MTT cytotoxicity assay; format: cell-based, human; conditions: tested at 50, 100, 200 μM, data not shown
Protocol: as §1

MCF-7 (breast cancer) = assay: MTT cytotoxicity assay; format: cell-based, human; conditions: tested at 50, 100, 200 μM, data not shown
Protocol: as §1

[7] = test system: Meloidogyne incognita J2 juveniles; assay: In vitro nematistatic assay (temporary paralysis); format: cell-based
C. elegans [8] = assay: In vitro nematistatic assay (temporary paralysis), non-target species; format: cell-based; conditions: Caenorhabditis elegans; reversible paralysis, 24 h exposure
Meloidogyne incognita J2 = assay: Recovery from indole-induced temporary paralysis after rinsing with water; format: cell-based
R. blumi [9] = assay: In vitro nematistatic assay (temporary paralysis), non-target species; format: cell-based, Rhabditis blumi

SMILES: c1ccc2[nH]ccc2c1 [Indole, indole]
- EC50 (H. sonorensis): > 400 µg/mL
- Reduction of EC50 for T. semipenetrans versus M. incognita ([1]; 24 h of exposure): 34%
- Increase of EC50 at 72 h compared with 24 h ([1]; T. semipenetrans): 84%
- Increase of EC90 at 72 h compared with 24 h ([1]; T. semipenetrans): 79%
- EC50 ([1]; Tylenchulus semipenetrans, 24 h, 24 h exposure, read-out: EC50): 37 µg/mL (≈ 316 µM)
- EC50 ([1]; Tylenchulus semipenetrans, 48 h, 48 h exposure, read-out: EC50): 66.2 µg/mL (≈ 565 µM)
- EC50 ([1]; Tylenchulus semipenetrans, 72 h, 72 h exposure, read-out: EC50): 68.3 µg/mL (≈ 583 µM)
- EC90 ([1]; Tylenchulus semipenetrans, 24 h exposure): 64.2 µg/mL (≈ 548 µM)
- EC90 ([1]; Tylenchulus semipenetrans, 48 h exposure): 108 µg/mL (≈ 922 µM)
- EC90 ([1]; Tylenchulus semipenetrans, 72 h exposure): 115 µg/mL (≈ 982 µM)
- EC10 ([1]; 24 h exposure): 21.4 (12.8, 27.9) μg/mL
- EC25 ([1]; 24 h exposure): 27.8 (18.9, 34.2) μg/mL
- EC50 ([1]; 24 h exposure): 37.1 µg/mL (≈ 317 µM)
- EC10 ([1]; 48 h exposure): 40.6 (8.18, 57.5) μg/mL
- EC25 ([1]; 48 h exposure): 51.2 (16.1, 67.0) μg/mL
- EC10 ([1]; 72 h exposure): 40.5 (13.1, 55.8) μg/mL
- EC25 ([1]; 72 h exposure): 51.9 (23.3, 66.0) μg/mL
- EC50 (S. carpocapsae): > 400 µg/mL
- In vitro cytotoxicity: none even at the highest concentration tested [2]: > 200 µM
- Concentrations showing nematicidal activity (R. blumi [3]): ≥ 300 µg/mL
- Concentrations showing nematicidal activity (C. elegans [4]): ≥ 300 µg/mL
- EC50 (H. bacteriophora): > 400 µg/mL
- In vitro cytotoxicity: none even at the highest concentration tested [5]: > 200 µM
- In vitro cytotoxicity: none even at the highest concentration tested [6]: > 200 µM
- In vitro cytotoxicity: none even at the highest concentration tested (MCF-7 (breast cancer)): > 200 µM
- EC10 ([7]; 24 h exposure): 41.3 (36.8, 44.9) μg/mL
- EC25 ([7]; 24 h exposure): 47.8 (43.9, 51.1) μg/mL
- EC50 ([7]; 24 h exposure): 56.3 µg/mL (≈ 481 µM)
- EC10 ([7]; 48 h exposure): 44.3 (36.8, 49.7) μg/mL
- EC25 ([7]; 48 h exposure): 51.7 (45.0, 56.6) μg/mL
- EC10 ([7]; 72 h exposure): 62.9 (31.4, 72.3) μg/mL
- EC25 ([7]; 72 h exposure): 68.9 (42.1, 76.9) μg/mL
- EC50 ([7]; Meloidogyne incognita, 24 h, 24 h exposure, read-out: EC50): 56 µg/mL (≈ 478 µM)
- EC90 ([7]; Meloidogyne incognita, 24 h exposure): 77 µg/mL (≈ 657 µM)
- EC50 ([7]; Meloidogyne incognita, 48 h, 48 h exposure, read-out: EC50): 61.3 µg/mL (≈ 523 µM)
- EC90 ([7]; Meloidogyne incognita, 48 h exposure): 84.7 µg/mL (≈ 723 µM)
- EC50 ([7]; Meloidogyne incognita, 72 h, 72 h exposure, read-out: EC50): 76.3 µg/mL (≈ 651 µM)
- EC90 ([7]; Meloidogyne incognita, 72 h exposure): 92.5 µg/mL (≈ 790 µM)
- EC50 (C. elegans [8]): 159 µg/mL (≈ 1360 µM)
- Recovery after 24 h in water (Meloidogyne incognita J2; 60 μg/mL, 24-h exposure to treatment): 95.9%
- Recovery after 24 h in water (Meloidogyne incognita J2; 60 μg/mL, 72-h exposure to treatment): 95.5%
- Recovery after 24 h in water (Meloidogyne incognita J2; 80 μg/mL, 24-h exposure to treatment): 94.9%
- Recovery after 24 h in water (Meloidogyne incognita J2; 80 μg/mL, 72-h exposure to treatment): 92.8%
- M. incognita regaining baseline mobility during a recovery period of 24 h (Meloidogyne incognita J2; regardless of length of prior exposure (24 h to 72 h)): over 90%
- Reduction of 24-h EC50 against R. blumi versus C. elegans (R. blumi [9]; 24 h): 77%
- EC50 (R. blumi [9]; Metarhabditis blumi, reversible paralysis, 24 h exposure): 37 µg/mL (≈ 316 µM)
